# Measurements published in patent publication US7998989B2, “2-Imino-1,3-thiazoline-based compounds and T-type calcium channel inhibitors containing the same” (Korea Institute of Science and Technology, priority 2007, dated 2011).
row,Structure (SMILES),melting point [°C]
1,CCCCN1C(=NC23CC4CC(CC(C4)C2)C3)SCC1CC(=O)Nc1cc(CF)cc(CF)c1.Cl (centres unmarked),252
2,CN1C(=NC2CC2)SCC1CC(=O)Nc1ccc(Br)cc1.Cl (centres unmarked),227 to 228.5
3,Cc1ccc(NC(=O)CC2CSC(=NC3CCCC3)N2C)c(F)c1.Cl (centres unmarked),189 to 190
4,CC1SC(=NC2CCCCC2)N(C)C1CC(=O)Nc1ccc(C(C)(C)C)cc1.Cl (centres unmarked),255 to 257
5,Cc1ccc(NC(=O)CC2CSC(=NC3CCCCC3)N2C2CCCCC2)cc1Cl.Cl (centres unmarked),173
6,CC(C)c1ccc(NC(=O)CC2CSC(=NC3CCCCC3)N2C2CCCCC2)cc1.Cl (centres unmarked),199.7
7,CN1C(=NC2CC2)SCC1CC(=O)Nc1ccc(F)cc1Cl.Cl (centres unmarked),237 to 239
8,Br.CN1C(=NC2CCCCCC2)SCC1C(=O)Nc1ccc(Cl)cc1 (centres unmarked),286.5
9,CN1C(=NC2CC2)SCC1CC(=O)Nc1cc(Cl)ccc1F.Cl (centres unmarked),233.5 to 234.5
10,CN1C(=NC2CC2)SCC1CC(=O)Nc1ccc(Cl)cc1F.Cl (centres unmarked),237 to 237.5
11,CCCN1C(=NC2CCCCC2)SCC1CC(=O)Nc1cc(C(F)(F)F)cc(C(F)(F)F)c1.Cl (centres unmarked),243.4
12,CC1SC(=NC2CCCC2)N(C)C1CC(=O)Nc1ccccc1.Cl (centres unmarked),186 to 188
13,CCOc1ccc(NC(=O)CC2CSC(=NC3CC3)N2C)cc1.Cl (centres unmarked),219 to 220
14,CN1C(=NC2CCCCC2)SCC1CC(=O)NCc1ccccc1.Cl (centres unmarked),206 to 206.5
15,COc1ccc(NC(=O)CC2CSC(=NC3CCCC3)N2C)cc1.Cl (centres unmarked),210 to 211
16,Cl.O=C(CC1CSC(=NC2CCCCC2)N1Cc1ccccc1)Nc1cc(C(F)(F)F)cc(C(F)(F)F)c1 (centres unmarked),234.6
17,Br.CN1C(=NC2CCCCCC2)SCC1C(=O)Nc1ccc(C(C)(C)C)cc1 (centres unmarked),169.9
18,COc1ccc(CNC(=O)CC2CSC(=NC3CC3)N2C)cc1.Cl (centres unmarked),220.5 to 222
19,Cc1ccc(NC(=O)CC2CSC(=NC3CC3)N2C)c(Cl)c1.Cl (centres unmarked),212 to 212.5

# The remaining lines, values ahead:
row,melting point [°C],Structure (SMILES)
1,207.6,"CC(C)c1ccc(NC(=O)C2CSC(=NC3CCCCCC3)N2C)cc1 (centres unmarked) [KHG24680, (2-cycloheptylimino-3-methyl-1,3-thiazolidine-4-yl)-N-(4-isopropylphenyl)-carboxamide]"
2,208,"CN1C(=NC2CCCCCC2)SCC1C(=O)Nc1ccccc1 (centres unmarked) [KHG24622, (2-cycloheptylimino-3-methyl-1,3-thiazolidine-4-yl)-N-phenyl-carboxamide]"
3,184.2,"CN1C(=NC2CCCCCC2)SCC1C(=O)Nc1cc(F)ccc1F (centres unmarked) [KHG24625, (2-cycloheptylimino-3-methyl-1,3-thiazolidine-4-yl)-N-(2,5-difluorophenyl)-carboxamide]"
4,199.7,"CN1C(=NC2CCCCCC2)SCC1C(=O)Nc1ccc(Cl)cc1 (centres unmarked) [KHG24677, (2-cycloheptylimino-3-methyl-1,3-thiazolidine-4-yl)-N-(4-chlorophenyl)-carboxamide]"
5,194 to 195,"CCc1ccc(NC(=O)C2CSC(=NC3CCCCCC3)N2C)cc1 (centres unmarked) [KHG24664, (2-cycloheptylimino-3-methyl-1,3-thiazolidine-4-yl)-N-(4-ethylphenyl)-carboxamide]"
6,169.6,"CN1C(=NC2CCCCCC2)SCC1C(=O)Nc1ccc(F)cc1 (centres unmarked) [KHG24631, (2-cycloheptylimino-3-methyl-1,3-thiazolidine-4-yl)-N-(4-fluorophenyl)-carboxamide]"
7,173.3,"CCCCc1ccc(NC(=O)C2CSC(=NC3CCCCCC3)N2C)cc1 (centres unmarked) [KHG24689, (2-cycloheptylimino-3-methyl-1,3-thiazolidine-4-yl)-N-(4-n-butylphenyl)-carboxamide]"
